Counter-ions that a name gives are not always drawn. One block for each compound: values may come before it.
Columns and labels:
[1] = in vivo; cited from earlier work
[2] = Stability of screened solid forms with time; format: physicochemical
Protocol: Form C9 was only exclusively obtained using chloroform as a solvent, which solvent is not suitable for industrial manufacturing of a drug according to regulatory requirements. These solid forms are consequently not suitable for industrial manufacturing of a drug.
Amorphous Avatrombopag maleate (200 mg) was suspended in methanol (10 mL) at room temperature, and stirred for 15 hours, filtered and dried in the air. […] After 24 hours, the solid was analyzed by PXRD again - only form beta was observed. ^1H NMR analysis of said solid form indicated the presence of methanol in the crystalline form. In order to remove the methanol to obtain an anhydrous form, form beta was dried in vacuum for 2 hours at 70°C. After said desolvation step, crystalline forma alpha was obtained.

[3] = pH 1 to 11; cited from earlier work
[4] = Thermal stability at 90 °C for 24 hours, PXRD and 1H NMR; format: physicochemical; settings: open or closed vial
Description: (§1) The Powder X-Ray diffraction (PXRD) patterns were acquired on a Bruker D8 Advance Series 2Theta/Theta powder diffraction system using CuKα1-radiation operated at 40 kV and 40 mA in transmission geometry. The system is equipped with a VÅNTEC-1 single photon counting PSD, a Germanium monochromator, a ninety positions auto changer sample stage, fixed divergence slits and a radial soller. Programs used: Data collection with DIFFRAC plus XRD Commander V.2.5.1, and evaluation with High Score Plus 4.9 (Malvern PANalytical B.V.). Measurement conditions: The samples were measured in a range from 4 to 40° in 2θ in a 6 or 30 minutes measurement using an angular step of 0.05° and a time per step of […]. Sample preparation: 20 mg of non-manipulated sample were prepared in standard sample holders using two foils of polyacetate
Proton nuclear magnetic resonance analyses (^1H NMR spectroscopy) were recorded in a Bruker 300 NMR spectrometer, equipped with a z gradient 5 mm BBO (Broadband Observe) probe with ATM and an automatic autosampler. Measurement conditions: The samples were analysed at room temperature. Sample preparation: Approximately 2-5 mg of sample were dissolved in 0.7 mL of deuterated solvent (dimethylsulfoxide-d6).

[5] = Hygroscopicity by Dynamic Vapor Sorption analysis; format: physicochemical; settings: for gain of weight by absorption of water: 25°C
Protocol: Dynamic Vapor Sorption Analysis (DVS) were performed in a Mettler Toledo TGA / DSC 1 LF instrument equipped with a LF SDTA FRS2 sensor and coupled with a Modular Humidity Generator MHG 32. Data collection and evaluation was done with STARe software. Measurement conditions: The samples were analysed following a humidity cycle from 20%RH up to 80%RH, down to 3%RH, up to 90 and down to 3%RH in 10% steps of 30 minutes at 25°C. Sample preparation: Approximately 5-10 mg of sample were weighed (using a MX5 Mettler Toledo microbalance) into 150 µL platinum crucibles without lid.

[6] = Solid form stability in climatic chamber at 40°C and 75% RH, monitored by PXRD; format: physicochemical; settings: 40°C and 75% RH, 1, 5 and 13 days
Description: as §1
A sample of Crystalline Form Alpha of Avatrombopag maleate was stored for 13 days in a climatic chamber at 40°C and 75% RH, and the solid form was monitored by PXRD.

SMILES: O=C(Nc1nc(-c2cc(Cl)cs2)c(N2CCN(C3CCCCC3)CC2)s1)c1cnc(N2CCC(C(=O)O)CC2)c(Cl)c1 [Form C, Avatrombopag maleate]
- oral absorption [1]: excellent oral absorption

- stability of the solid form with time ([2]; listed as C22): lose crystallinity with time
SMILES: O=C(Nc1nc(-c2cc(Cl)cs2)c(N2CCN(C3CCCCC3)CC2)s1)c1cnc(N2CCC(C(=O)O)CC2)c(Cl)c1.O=C(O)/C=C\C(=O)O [Form C22, Avatrombopag maleate]

SMILES: O=C(Nc1nc(-c2cc(Cl)cs2)c(N2CCN(C3CCCCC3)CC2)s1)c1cnc(N2CCC(C(=O)O)CC2)c(Cl)c1.O=C(O)/C=C\C(=O)O [Form A, Avatrombopag maleate]
- oral absorption [1]: excellent oral absorption

SMILES: O=C(Nc1nc(-c2cc(Cl)cs2)c(N2CCN(C3CCCCC3)CC2)s1)c1cnc(N2CCC(C(=O)O)CC2)c(Cl)c1.O=C(O)/C=C\C(=O)O [Avatrombopag maleate]
- aqueous solubility [3]: practically insoluble

SMILES: O=C(Nc1nc(-c2cc(Cl)cs2)c(N2CCN(C3CCCCC3)CC2)s1)c1cnc(N2CCC(C(=O)O)CC2)c(Cl)c1.O=C(O)/C=C\C(=O)O [Form gamma, Avatrombopag maleate]
- stability of the solid form with time ([2]; listed as form gamma): spontaneously converted into form beta with time

- stability of the solid form with time ([2]; listed as C5): lose crystallinity with time
SMILES: O=C(Nc1nc(-c2cc(Cl)cs2)c(N2CCN(C3CCCCC3)CC2)s1)c1cnc(N2CCC(C(=O)O)CC2)c(Cl)c1.O=C(O)/C=C\C(=O)O [Form C5, Avatrombopag maleate]

SMILES: O=C(Nc1nc(-c2cc(Cl)cs2)c(N2CCN(C3CCCCC3)CC2)s1)c1cnc(N2CCC(C(=O)O)CC2)c(Cl)c1 [Form B, Avatrombopag maleate]
- oral absorption [1]: inferior oral absorption

- stability of the solid form with time ([2]; listed as C11): unstable
SMILES: O=C(Nc1nc(-c2cc(Cl)cs2)c(N2CCN(C3CCCCC3)CC2)s1)c1cnc(N2CCC(C(=O)O)CC2)c(Cl)c1.O=C(O)/C=C\C(=O)O [Form C11, Avatrombopag maleate]

- solid form (PXRD, 1H NMR) after heating [4]: preserves its solid form
- solid form (PXRD) before and after DVS analysis ([5]; exposure to relative humidity as high as 90%): preserves its solid form
- gain of weight by absorption of water ([5]; relative humidity of 70%): below 0.3%
- gain of weight by absorption of water ([5]; relative humidity of 80%): below 0.4%
- gain of weight by absorption of water ([5]; relative humidity of 90%): below 0.7%
- solid form (PXRD) after storage [6]: preserves its solid form
SMILES: O=C(Nc1nc(-c2cc(Cl)cs2)c(N2CCN(C3CCCCC3)CC2)s1)c1cnc(N2CCC(C(=O)O)CC2)c(Cl)c1 [Form alpha, Avatrombopag maleate]

— patent publication EP4660195A1, “CRYSTALLINE FORMS OF AVATROMBOPAG MALEATE AND PREPARATION THEREOF” (NOUCOR HEALTH S.A., priority 2024, dated 2025)
